From patent US20250154154A1 (Relay Binney Street, 2nd Floor, priority 2020, published 2025)

Experiments:
[1] = biological target: SRC (Homo sapiens, UniProt P12931); test: SRC Biochemical Assay Protocol (microfluidic mobility shift assay, FLPeptide4 substrate)
How it was run: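 Recombinant SRC (0.26 nM) preincubated 30 min at RT with compound (0.0017–100 μM) and 1.5 μM FLPeptide4, then 50 μM ATP added; 90 min reaction in HEPES pH 7.4, 10 mM MgCl2, 1% DMSO, EDTA-quenched. Phosphopeptide quantified by microfluidic mobility shift; IC50 from 4-parameter logistic fit.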

[2] = tested on: RBE cells; test: Cell Viability Protocol (CellTiterGlo), RBE cells; assay type: cell-based; conditions: RBE or SNU-1079 cells, 72 or 120 hour, cell line and time not given
How it was run: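 RBE cells plated at 1200/well in RPMI 1640 with 10% FBS, incubated 24 h, then dosed with compound from DMSO stocks and incubated 72 or 120 h at 37° C. CellTiterGlo luminescence normalised to DMSO control; IC50 from 4-parameter fit.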

[3] = tested on: phospho-S6RP (Ser 235/236) in RBE cells; test: Cellular Proliferation Protocol (cellular phospho-S6RP HTRF), RBE cells; assay type: cell-based; conditions: 6 hours treatment, RBE or SNU-1079 cells, cell line not given
How it was run: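 RBE cells, 2000/well, seeded 24 h before 6 h compound treatment at 37° C. Lysates were probed with a Eu-cryptate/d2 HTRF antibody sandwich for phospho-S6RP (Ser 235/236), incubated overnight at room temperature. Signal normalised to DMSO control and IC50 fitted to a 4-parameter curve.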

SRC, sequence (P12931 whole entry, species assumed): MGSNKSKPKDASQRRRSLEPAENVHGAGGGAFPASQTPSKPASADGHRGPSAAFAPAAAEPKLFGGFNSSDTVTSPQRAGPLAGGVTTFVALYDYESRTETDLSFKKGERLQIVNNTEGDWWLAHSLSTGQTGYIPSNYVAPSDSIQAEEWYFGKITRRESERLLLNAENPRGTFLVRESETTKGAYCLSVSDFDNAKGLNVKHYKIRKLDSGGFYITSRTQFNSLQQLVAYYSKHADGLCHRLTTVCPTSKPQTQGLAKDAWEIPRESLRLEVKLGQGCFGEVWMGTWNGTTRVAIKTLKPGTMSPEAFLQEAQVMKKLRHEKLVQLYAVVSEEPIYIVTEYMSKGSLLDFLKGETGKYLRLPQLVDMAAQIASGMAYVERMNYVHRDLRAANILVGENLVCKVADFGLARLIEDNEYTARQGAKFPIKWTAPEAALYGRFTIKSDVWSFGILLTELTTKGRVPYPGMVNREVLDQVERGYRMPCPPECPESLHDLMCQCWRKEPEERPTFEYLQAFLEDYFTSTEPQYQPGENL

Compound | IC50 [1] | IC50 [2] | IC50 ([3]; 6 h) | IC50 [3]
C=CC(=O)N1CC[C@@H](N2CC(C#Cc3c(-c4ccc(Oc5ccccc5)cc4)c4c(N)ncnc4n3C)C2)[C@@H](F)C1 [II-171, 1-((3S,4R)-4-(3-((4-amino-7-methyl-5-(4-phenoxyphenyl)-7H-pyrrolo[2,3-d]pyrimidin-6-yl)ethynyl)azetidin-1-yl)-3-fluoropiperidin-1-yl)prop-2-en-1-one] | 0.01 to 1 µM | ≤ 0.01 µM | ≤ 0.01 µM | –
C=CC(=O)N1CCC(N2CC(C#Cc3c(-c4ccc(Cl)c(OC)n4)c4c(N)ncnc4n3C)C2)CC1 [II-324] | 0.01 to 1 µM | 0.01 to 1 µM | – | 0.01 to 1 µM
C/C=C/C(=O)N1CC(N2CCC(C#Cc3c(-c4ccc(Oc5ccccc5)cc4)c4c(N)ncnc4n3C(C)C)CC2)C1 [Example I-51] | 0.01 to 1 µM | 0.01 to 1 µM | ≤ 0.01 µM | –
CCC(=O)N1C[C@@H]2[C@@H](C#Cc3c(-c4ccc(F)c5c4OCO5)c4c(N)ncnc4n3C(C)C)[C@@H]2C1 [II-133] | ≤ 0.01 µM | 0.01 to 1 µM | – | 0.01 to 1 µM
Cn1c(C#CC2CC3(C2)CN(C(=O)/C=C/CN2CCC2)C3)c(-c2ccc(Oc3ccccc3)cc2)c2c(N)ncnc21 [II-173, (E)-1-(6-((4-amino-7-methyl-5-(4-phenoxyphenyl)-7H-pyrrolo[2,3-d]pyrimidin-6-yl)ethynyl)-2-azaspiro[3.3]heptan-2-yl)-4-(azetidin-1-yl)but-2-en-1-one] | ≤ 0.01 µM | ≤ 0.01 µM | 0.01 to 1 µM | –
C=CC(=O)N1C[C@@H]2[C@@H](C#Cc3c(-c4cccc5c4OCO5)c4c(N)ncnc4n3C(C)C)[C@@H]2C1 [II-132] | ≤ 0.01 µM | ≤ 0.01 µM | – | ≤ 0.01 µM
C=CC(=O)N1CC[C@@H](N2CC(C#Cc3c(-c4ccc(Cl)c(OC)n4)c4c(N)ncnc4n3C)C2)[C@@H](F)C1 [II-320] | 0.01 to 1 µM | 0.01 to 1 µM | – | 0.01 to 1 µM
Cn1c(C#CC2CN(C(=O)/C=C/CN3CC(F)C3)C2)c(-c2ccc(Oc3ccccc3)cc2)c2c(N)ncnc21 [II-172, (E)-1-(3-((4-amino-7-methyl-5-(4-phenoxyphenyl)-7H-pyrrolo [2,3-d]pyrimidin-6-yl)ethynyl)azetidin-1-yl)-4-(3-fluoroazetidin-1-yl)but-2-en-1-one] | 0.01 to 1 µM | 0.01 to 1 µM | 0.01 to 1 µM | –
C=CC(=O)N1CC[C@H](N2CC(C#Cc3c(-c4ccc(Cl)c(C)c4)c4c(N)ncnc4n3C(C)C)C2)[C@H](F)C1 [II-111] | ≤ 0.01 µM | 0.01 to 1 µM | – | 0.01 to 1 µM
C=CC(=O)N1CCC(N2CC(C#Cc3c(-c4cccc5c4cnn5C)c4c(N)ncnc4n3C)C2)CC1 [II-93] | 1 to 10 µM | 1 to 10 µM | – | 1 to 10 µM
C=CC(=O)N1C[C@@H]2[C@@H](C#Cc3c(-c4ccc(Oc5cccc(C)n5)c5c4OCO5)c4c(N)ncnc4n3C)[C@@H]2C1 [II-135] | 0.01 to 1 µM | 0.01 to 1 µM | – | 0.01 to 1 µM
C=CC(=O)N1CCC(N2CC(C#Cc3c(-c4ccc(Br)c(OC)c4)c4c(N)ncnc4n3C(C)C)C2)CC1 [II-161, 1-(4-(3-((4-amino-5-(4-bromo-3-methoxyphenyl)-7-isopropyl-7H-pyrrolo[2,3-d]pyrimidin-6-yl)ethynyl)azetidin-1-yl)piperidin-1-yl)prop-2-en-1-one] | ≤ 0.01 µM | 0.01 to 1 µM | 0.01 to 1 µM | –
C=CC(=O)N1CC[C@@H](N2CC(C#Cc3c(-c4ccc(OC5(C)CC5)cc4)c4c(N)ncnc4n3C)C2)[C@@H](O)C1 [II-16] | 1 to 10 µM | 0.01 to 1 µM | 0.01 to 1 µM | –
C=CC(=O)NCC(=O)N1C[C@@H]2[C@@H](C#Cc3c(-c4c(Cl)ccc5c4OCO5)c4c(N)ncnc4n3C)[C@@H]2C1 [II-39] | ≤ 0.01 µM | ≤ 0.01 µM | – | ≤ 0.01 µM
CN(C)CCC(=O)N1CCC(C#Cc2c(-c3ccc(Oc4ccccc4)cc3)c3c(N)ncnc3n2C)CC1 [II-188] | 0.01 to 1 µM | 0.01 to 1 µM | 0.01 to 1 µM | –
C=CC(=O)N1CCC(C#Cc2[nH]c3ncnc(N)c3c2-c2ccc(Oc3ccccc3)cc2)CC1 [Example I-1] | 0.01 to 1 µM | 0.01 to 1 µM | ≤ 0.01 µM | –
C=CC(=O)N1C[C@@H]2[C@@H](C#Cc3c(-c4ccc(Oc5cccc(C)n5)cc4OC)c4c(N)ncnc4n3CCCS(C)(=O)=O)[C@@H]2C1 [II-52] | 0.01 to 1 µM | 1 to 10 µM | – | 0.01 to 1 µM
CN(C)C/C=C/C(=O)N1CC(C#Cc2c(-c3ccc(Oc4ccccc4)cc3)c3c(N)ncnc3n2C2CC(=O)N(C)C2)C1 (stereo not drawn) [II-192, (E)-4-(4-amino-6-((1-(4-(dimethylamino)but-2-enoyl)azetidin-3-yl)ethynyl)-5-(4-phenoxyphenyl)-7H-pyrrolo[2,3-d]pyrimidin-7-yl)-1-methylpyrrolidin-2-one] | 0.01 to 1 µM | 1 to 10 µM | 1 to 10 µM | –

Compound | IC50 [1] | IC50 [2] | IC50 ([3]; 6 h) | IC50 [3]
C=CC(=O)N1CCC(N2CC(C#Cc3c(-c4cccc(OC)n4)c4c(N)ncnc4n3C)C2)CC1 [II-92] | 0.01 to 1 µM | 0.01 to 1 µM | – | 0.01 to 1 µM
C=CC(=O)N1CCC(C#Cc2c(-c3ccc(Oc4ccccc4)cc3)c3c(N)ncnc3n2C(C)c2noc(C)n2)CC1 (stereo not drawn) [Example I-50] | 0.01 to 1 µM | 0.01 to 1 µM | 0.01 to 1 µM | –
C=CC(=O)N1C[C@@H]2[C@@H](C#Cc3c(-c4ccc(Oc5cccc(C)n5)cc4OC)c4c(N)ncnc4n3CS(C)(=O)=O)[C@@H]2C1 [II-50] | 0.01 to 1 µM | 1 to 10 µM | – | 1 to 10 µM
C=CC(=O)N[C@H](C)C(=O)N1CCC(C#Cc2c(-c3ccc(Oc4ccccc4)cc3)c3c(N)ncnc3n2[C@H]2CCOC2)CC1 [II-185, N-((R)-1-(4-((4-amino-5-(4-phenoxyphenyl)-7-((S)-tetrahydrofuran-3-yl)-7H-pyrrolo[2,3-d]pyrimidin-6-yl)ethynyl)piperidin-1-yl)-1-oxopropan-2-yl)acrylamide] | 0.01 to 1 µM | 1 to 10 µM | 1 to 10 µM | –
C=CC(=O)N1CC[C@@H](N2CC(C#Cc3c(-c4ccc(Oc5cccc(C)n5)cc4OC)c4c(N)ncnc4n3C)C2)[C@@H](O)C1 [II-19] | 0.01 to 1 µM | 1 to 10 µM | – | 0.01 to 1 µM
C=CC(=O)N1CCC(C#Cc2c(-c3ccc(Oc4ccccc4)cc3)c3c(N)ncnc3n2CCN2CCN(C)CC2)CC1 [Example I-52] | 0.01 to 1 µM | 0.01 to 1 µM | 0.01 to 1 µM | –
C=CC(=O)N1CCC(N2CC(C#Cc3c(-c4ccc(Oc5cccc(C)n5)cc4)c4c(N)ncnc4n3C)C2)C(O)C1 (stereo not drawn) [II-215, 1-(4-(3-((4-amino-7-methyl-5-(4-(6-methylpyridin-2-yloxy)phenyl)-7H-pyrrolo[2,3-d]pyrimidin-6-yl)ethynyl)azetidin-1-yl)-3-hydroxypiperidin-1-yl)prop-2-en-1-one] | 0.01 to 1 µM | 0.01 to 1 µM | 0.01 to 1 µM | –
CCN(CC)C/C=C/C(=O)N1C[C@@H]2[C@@H](C#Cc3c(-c4ccc(Oc5ccccc5)cc4)c4c(N)ncnc4n3C)[C@@H]2C1 [II-223, (E)-1-((1R,5S,6s)-6-((4-amino-7-methyl-5-(4-phenoxyphenyl)-7H-pyrrolo[2,3-d]pyrimidin-6-yl)ethynyl)-3-azabicyclo[3.1.0]hexan-3-yl)-4-(diethylamino)but-2-en-1-one] | 0.01 to 1 µM | 0.01 to 1 µM | 0.01 to 1 µM | –
C=CC(=O)N1CCC(N2CC(C#Cc3c(-c4cccc5c4OCO5)c4c(N)ncnc4n3CC)C2)CC1 [II-119] | ≤ 0.01 µM | 0.01 to 1 µM | – | 0.01 to 1 µM
C=CC(=O)N1CCC(C#Cc2c(-c3ccc(Oc4ccccc4)cc3)c3c(N)ncnc3n2C(C)C(=O)OC)CC1 (stereo not drawn) [Example I-42] | 0.01 to 1 µM | 0.01 to 1 µM | 0.01 to 1 µM | –
C=CC(=O)N1CCC(N2CC(C#Cc3c(-c4ccc(Oc5cccc(C)n5)c(OC)c4)c4c(N)ncnc4n3C)C2)CC1 [II-81] | 0.01 to 1 µM | 0.01 to 1 µM | – | 0.01 to 1 µM
C=CC(=O)N1CCC(N2CC(C#Cc3c(-c4ccc(Oc5ccccc5)cc4OC)c4cncnc4n3C)C2)CC1 [II-30] | 1 to 10 µM | 0.01 to 1 µM | 0.01 to 1 µM | –
C=CC(=O)N1CCN([C@H]2C[C@@H](C#Cc3c(-c4ccc(Oc5ccccc5)cc4)c4c(N)ncnc4n3C)C2)C(=O)C1 [II-214, 4-acryloyl-1-((1s,3s)-3-((4-amino-7-methyl-5-(4-phenoxyphenyl)-7H-pyrrolo[2,3-d]pyrimidin-6-yl)ethynyl)cyclobutyl) piperazin-2-one] | ≤ 0.01 µM | ≤ 0.01 µM | ≤ 0.01 µM | –
C=CC(=O)N1CC[C@@H](N2CC(C#Cc3c(-c4ccc(Oc5cccc(F)c5)cc4)c4c(N)ncnc4n3C)C2)[C@@H](O)C1 | 0.01 to 1 µM | 0.01 to 1 µM | – | 0.01 to 1 µM
C=CC(=O)N1CCC(N2CC(C#Cc3c(-c4c(Cl)ccc5c4OCO5)c4cncnc4n3C)C2)CC1 [II-29] | 1 to 10 µM | 1 to 10 µM | – | 1 to 10 µM
C=CC(=O)N1C[C@@H]2[C@@H](C#Cc3c(-c4ccc(Oc5cccc(C)n5)c(OC)c4)c4c(N)ncnc4n3CCCS(C)(=O)=O)[C@@H]2C1 [II-279] | 0.01 to 1 µM | 0.01 to 1 µM | 0.01 to 1 µM | –
C=CC(=O)N1C[C@@H]2[C@@H](C#Cc3c(-c4ccc(Oc5cccc(C)n5)cc4)c4c(N)ncnc4n3C3CCOC3)[C@@H]2C1 (mixture of isomers) [II-24] | ≤ 0.01 µM | ≤ 0.01 µM | – | ≤ 0.01 µM
